{
  "source": "patent US4018912A",
  "about": "“Tripeptide derivatives with central nervous system activity and preparation thereof” (Ayerst McKenna and Harrison Ltd., priority 1975, dated 1977)",
  "origin": "cited, not measured here",
  "key": {"[1]": {"settings": "prior art; due to rapid inactivation in the mammalian body"}, "effects of L-DOPA": {"test_system": "effects of L-DOPA", "settings": "literature (Plotnikoff et al. 1971; Friedman et al. 1973)"}, "[2]": {"test_system": "sedative effects of deserpidine", "settings": "mice; literature (Plotnikoff et al. 1973)"}, "effects of oxotremorine": {"test_system": "effects of oxotremorine", "settings": "literature (Plotnikoff et al. 1972)"}, "[3]": {"test_system": "sedative effects of deserpidine", "settings": "monkeys; literature (Plotnikoff et al. 1973)"}, "[4]": {"settings": "in vivo"}},
  "note": "Where two headings read alike, the source gives them in different places.",
  "data": [
    {"substance": "H-L-prolyl-L-leucyl-glycinamide [H--Pro--Leu--Gly--NH2]", "values": [
      {"measurement": "duration of action", "setting": "[1]", "result": "short duration of action"},
      {"measurement": "potentiation of the behavioral effects of L-DOPA", "setting": "effects of L-DOPA", "result": "potentiates the behavioral effects of (3,4-dihydroxyphenyl)-L-alanine (L-DOPA)"},
      {"measurement": "reversal of the sedative effects of deserpidine", "setting": "[2]", "result": "reverses the sedative effects of deserpidine"},
      {"measurement": "antagonism of the effects of oxotremorine", "setting": "effects of oxotremorine", "result": "antagonizes the effects of oxotremorine"},
      {"measurement": "reversal of the sedative effects of deserpidine", "setting": "[3]", "result": "reverses the sedative effects of deserpidine"},
      {"measurement": "first step in the inactivation", "setting": "[4]", "result": "proteolytic cleavage of the Pro-Leu bond with formation of proline and leucyl-glycinamide"}
    ]}
  ]
}
